Consider four molecules from patent US11613525B2 (CTXT PTY LIMITED, priority 2018, dated 2023).

pEC50, pKd: −log10 of the molar value.

One may read the pEC50 as the negative decadic logarithm of the EC50, by convention in mol/L. The term pKd denotes the negative decadic logarithm of the Kd, by convention in mol/L.

Assay [1] addresses T1, huSTING (WT) (Homo sapiens (Human), UniProt Q86WV6, H232R). Description: THP-1 reporter cell line assay, THP-1-Dual KI-hSTING-R232 cells. Particulars: read-out: Cellular EC50 huSTING (WT). In kind it is cell-based.
Target sequence in this assay (Q86WV6 whole entry H232R): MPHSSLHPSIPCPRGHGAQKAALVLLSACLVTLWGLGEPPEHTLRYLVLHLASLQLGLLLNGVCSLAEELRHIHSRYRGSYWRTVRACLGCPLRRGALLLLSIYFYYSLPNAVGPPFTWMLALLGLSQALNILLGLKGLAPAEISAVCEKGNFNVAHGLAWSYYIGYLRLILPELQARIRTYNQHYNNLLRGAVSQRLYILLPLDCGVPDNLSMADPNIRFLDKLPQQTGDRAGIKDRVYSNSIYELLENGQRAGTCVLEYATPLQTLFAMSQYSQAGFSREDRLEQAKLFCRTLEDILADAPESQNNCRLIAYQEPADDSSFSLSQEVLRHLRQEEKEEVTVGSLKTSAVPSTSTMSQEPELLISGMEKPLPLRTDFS
For assay [2], the target named is T1, huSTING (WT). Description: SPR (WT) 8° C. Format: binding. Conditions: read-out: SPR huSTING (WT) KD at 8° C. From the text: (§1) Binding interactions of ligands with STING proteins were quantified using Surface Plasmon Resonance (SPR) with a minimally biotinylated STING protein immobilized on Streptavidin chip surface.
(§2) These were modified for compounds with longer residence times, so that curves could reach steady-state, or so that compound would be fully dissociated before the subsequent injection.
(§3) For single-cycle kinetic experiments, sensorgrams were fit to a two-step kinetic model in which two analyte molecules bind sequentially (Biacore T200 or S200 Evaluation Software).
Target sequence in this assay (Q86WV6 other isoform, or with tags, fused parts or gaps, stated change not applied): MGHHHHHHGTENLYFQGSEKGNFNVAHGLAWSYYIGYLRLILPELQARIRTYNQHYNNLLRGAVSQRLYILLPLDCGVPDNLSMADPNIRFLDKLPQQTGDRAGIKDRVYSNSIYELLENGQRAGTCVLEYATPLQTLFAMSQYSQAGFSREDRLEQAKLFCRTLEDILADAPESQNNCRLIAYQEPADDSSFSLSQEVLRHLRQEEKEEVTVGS

Assay [3] deals with T2, human STING (HAQ) (Homo sapiens, UniProt Q86WV6, G230A/H232R/R293Q). Description: SPR (HAQ) 8° C. Format: binding. Conditions: 50% occupancy as surrogate KD, read-out: SPR huSTING (HAQ) KD at 8° C.
From the text: as §1, §2, §3

The target in assay [4] is T2, human STING (HAQ). Briefly: biochemical. In kind it is binding. Conditions: compound 100 μM; protein concentration 2 μM.
For a further assay, the target named is huSTING (HAQ) (Homo sapiens (Human), UniProt Q86WV6, G230A/H232R/R293Q/R71H). Briefly: THP-1 reporter cell line assay, THP-1 STING Lucia ISG cells. Format: cell-based. Particulars: THP-1 STING Lucia ISG cells; modified method, top concentration 40 μM, pin tool, EnVision; read-out: Cellular EC50 huSTING (HAQ).
Chain of huSTING (HAQ) (Q86WV6 whole entry R71H/G230A/H232R/R293Q): as the sequence (Q86WV6 whole entry H232R) above, with R71H, G230A, R293Q counted along it

T2 sequence (Q86WV6 whole entry G230A/H232R/R293Q, looked up): as the sequence (Q86WV6 whole entry H232R) above, with G230A, R293Q counted along it

`COc1ncnc2sc(C(=O)O)c(COc3c(F)cc(C(N)=O)cc3F)c12` [Example 109, 5-((4-Carbamoyl-2,6-difluorophenoxy)methyl)-4-methoxythieno[2,3-d]pyrimidine-6-carboxylic acid]: the pEC50 at huSTING (WT) [1] and at huSTING (HAQ) was < 4.40 in each case. Further, the negative-log Kd (pKd) at huSTING (WT) [2] was 3.70; at human STING (HAQ) [3], 3.80. Besides, on human STING (HAQ) [4], the “DSF huSTING (HAQ) ΔTm (° C.)” value stood at 8.60 °C.

As for `COCc1cc(OCc2c(C(=O)O)sc3cccc(Cl)c23)ccc1C(N)=O` [Example 113, 3-((4-Carbamoyl-3-(methoxymethyl)phenoxy)methyl)-4-chlorobenzo[b]thiophene-2-carboxylic acid], the negative logarithm of the EC50 (pEC50) at huSTING (WT) [1] and on huSTING (HAQ) was < 4.40 each time. In addition, at human STING (HAQ) [3], the negative logarithm of the Kd (pKd) was 4.28. In addition, the “DSF huSTING (HAQ) ΔTm (° C.)” value at human STING (HAQ) [4] was found to be 5.60 °C.

Regarding `NC(=O)c1cc(F)c(OCc2c(C(=O)O)sc3cncc(Cl)c23)c(F)c1` [Example 171, Lithium 3-((4-carbamoyl-2,6-difluorophenoxy)methyl)-4-chlorothieno[2,3-c]pyridine-2-carboxylate], the negative logarithm of the EC50 (pEC50) at huSTING (WT) [1] and on huSTING (HAQ) was < 4.40 each time. Besides, the negative logarithm of the Kd (pKd) on human STING (HAQ) [3] is 5.31. Moreover, the “DSF huSTING (HAQ) ΔTm (° C.)” value on human STING (HAQ) [4] came to 9.33 °C.

As for `COc1nccc2sc(C(=O)O)c(COc3c(F)cc(C(N)=O)cc3CO)c12` [Example 172, 3-((4-Carbamoyl-2-fluoro-6-(hydroxymethyl)phenoxy)methyl)-4-methoxythieno[3,2-c]pyridine-2-carboxylic acid], the negative-log EC50 (pEC50) at huSTING (WT) [1] and at huSTING (HAQ) was < 4.40 throughout. For the same molecule, the pKd at human STING (HAQ) [3] was 3.66. Besides, on human STING (HAQ) [4], the “DSF huSTING (HAQ) ΔTm (° C.)” value came to 0.56 °C.
